US6642256B2, “Piperidine derivatives as subtype selective N-Methyl-D-Aspartate antagonists” (Warner-Lambert Company LLC, priority 2000, dated 2003)
Like-named read-outs stand apart in the source and are kept apart here.

How the values were obtained:
[1] = target: T1, NR1A/NR2B NMDA receptor subtype (Rattus norvegicus, UniProt P35439+Q00960); assay: [3H]Ifenprodil binding assay (IFPNR), rat forebrain membranes
T1 construct: buffy coat membrane fraction was prepared from frozen adult rat forebrains; tissue Zivic-Miller Laboratories, Inc; host or cells: adult rat forebrain membranes
T1 sequence (Q00960 27-1482, other chains not shown): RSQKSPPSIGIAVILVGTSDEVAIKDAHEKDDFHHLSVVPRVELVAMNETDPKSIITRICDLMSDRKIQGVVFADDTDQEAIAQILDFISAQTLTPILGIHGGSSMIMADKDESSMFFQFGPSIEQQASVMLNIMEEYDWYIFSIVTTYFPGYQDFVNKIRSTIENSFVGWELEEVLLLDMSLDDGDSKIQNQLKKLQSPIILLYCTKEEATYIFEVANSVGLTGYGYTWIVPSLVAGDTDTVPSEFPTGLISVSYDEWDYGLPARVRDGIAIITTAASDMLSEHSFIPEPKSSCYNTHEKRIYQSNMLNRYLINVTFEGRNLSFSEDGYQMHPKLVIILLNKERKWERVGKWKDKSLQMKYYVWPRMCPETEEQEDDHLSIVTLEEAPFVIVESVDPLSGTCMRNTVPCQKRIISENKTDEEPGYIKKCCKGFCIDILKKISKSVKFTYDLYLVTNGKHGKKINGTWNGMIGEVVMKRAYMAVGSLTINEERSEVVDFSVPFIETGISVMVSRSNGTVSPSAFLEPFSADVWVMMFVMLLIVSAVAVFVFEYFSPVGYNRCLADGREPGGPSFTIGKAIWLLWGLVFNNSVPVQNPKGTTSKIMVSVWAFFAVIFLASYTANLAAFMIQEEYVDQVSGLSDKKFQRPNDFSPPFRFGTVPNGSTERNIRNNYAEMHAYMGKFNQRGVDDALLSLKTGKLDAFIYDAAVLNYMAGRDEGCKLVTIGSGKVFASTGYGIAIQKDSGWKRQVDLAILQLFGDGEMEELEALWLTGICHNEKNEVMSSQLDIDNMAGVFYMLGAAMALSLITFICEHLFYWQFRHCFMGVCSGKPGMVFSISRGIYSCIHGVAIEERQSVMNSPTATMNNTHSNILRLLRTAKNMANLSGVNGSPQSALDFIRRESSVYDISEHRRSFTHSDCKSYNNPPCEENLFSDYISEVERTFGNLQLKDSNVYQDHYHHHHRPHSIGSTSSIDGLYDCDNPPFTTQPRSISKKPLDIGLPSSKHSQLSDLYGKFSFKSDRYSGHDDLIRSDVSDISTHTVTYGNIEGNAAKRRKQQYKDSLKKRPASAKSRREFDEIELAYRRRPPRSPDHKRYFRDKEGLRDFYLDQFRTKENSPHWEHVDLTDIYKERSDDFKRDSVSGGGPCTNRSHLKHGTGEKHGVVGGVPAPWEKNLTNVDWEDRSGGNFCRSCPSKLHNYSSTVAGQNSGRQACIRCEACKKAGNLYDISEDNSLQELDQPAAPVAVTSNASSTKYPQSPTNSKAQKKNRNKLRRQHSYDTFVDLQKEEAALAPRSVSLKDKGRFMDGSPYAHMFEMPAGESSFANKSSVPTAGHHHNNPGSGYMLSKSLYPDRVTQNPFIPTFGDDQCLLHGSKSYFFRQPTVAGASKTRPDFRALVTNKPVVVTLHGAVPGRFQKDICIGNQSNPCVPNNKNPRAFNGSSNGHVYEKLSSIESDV
Experimental: b. [^3H]Ifenprodil Binding Assay (IFPNR) Protocol:
Ifenprodil, [phenyl-^3H]-(specific activity, 66.2 Ci/mmol) was purchased from Dupont NEN Research Products (Boston, Mass.). Ifenprodil tartrate was purchased from Research Biochemicals International (Natick, Mass.). HEPES, glutamate and glycine were purchased from Sigma Chemical Co. (St. Louis, Mo.).
All buffers and reagents used in assay incubations or to dissolve drugs were prepared using water purified through a Milli-Q reverse osmosis system (Millipore Corp., Bedford, Mass.) and treated with UV emissions. Prior to use in the assays buffers were further filtered through a sterile Coming filtration unit (Coming Glass Works, Coming, N.Y.) containing a 0.2 micron filter. Buffer used to rinse the membranes on the assay filters was prepared with purified water, but was not refiltered and was stored no longer than 5 days. Stock solutions of the drugs (usually 10 mM) were dissolved in 20 mM HEPES-KOH buffer pH 7.4 (assay buffer) with the addition of 1 to 5 μL of glacial AcOH, if needed to keep them in solution. Eliprodil was used as the reference NMDA antagonist. A stock solution of eliprodil was prepared, and was buffered with the addition of 10% DMSO. All subsequent dilutions from the stock solution were made in buffer.
An extensively washed buffy coat membrane fraction was prepared from frozen adult rat forebrains (Zivic-Miller Laboratories, Inc., Zelienople, Pa.) as described by Coughenour L. L.; Cordon, J. J., J. Pharmacol. Exp. Ther., 1997;280:584-592, and stored at −80° C. On the day of the assay, pellets of the frozen membrane fractions were resuspended in 35 mL of assay buffer at pH 7.4 using a POLYTRON (Kinematica A. G. Company, Littau, Switzerland) mixer at setting 6. After incubation at 37° C. for 30 minutes in a shaking water bath, the homogenate was centrifuged 40,000×g for 10 minutes at 4° C. The pellets were resuspended in fresh buffer and centrifuged 3 more times before final suspension for use in the assay.
(iii) [^3H]Ifenprodil Binding protocol:
Triplicate incubations were carried out in a volume of 0.5 mL in 1.3 mL polypropylene tubes (Marsh Biomedical Products Inc, Rochester, N.Y.) for 2 hours at room temperature. Incubations contained invention compounds, membranes (100-200 μg protein) and 4 nM [^3H]-ifenprodil in 20 mM HEPES-KOH buffer, pH 7.4 (assay buffer). Assays were started by addition of the membranes. Bound radioligand was separated by filtration under reduced pressure using a TOMTEC Mach II, 96-well cell harvester (Tomtec Inc, Orange, Conn.). Filtration was through Whatman GF/B glass fiber filters (Whatman Ltd., Maidstone, England), which had been soaked for at least 15 minutes in 0.3% polyethylenimine and allowed to air dry. The filters were rinsed with 3 mL of ice cold assay buffer within 6 seconds. Air was allowed to pass through the filters for an additional 10 seconds to remove residual moisture. The filter mat was supported on a cold (−20° C.) TEFLON (E. I. Du Pont de Nemours and Company, Wilmington, Del.) coated support, and filters from individual wells were separated and placed in Mini Poly-Q vials (Becklman Instruments Inc, Fullerton, Calif.) and filled with 4 mL of scintillation cocktail (Beckman Ready Protein^+). Radioactivity retained on the filter was determined by liquid scintillation spectrophotometry. Nonspecific binding was defined as the binding in the presence of […] ifenprodil. Ninety percent of the total binding of ifenprodil was specific binding at the NR1A/NR2B NMDA receptor subtype active site (as opposed to binding at a remote site).
Binding curves were statistically analyzed for a best 1- or 2-site competition fit using GRAPHPAD PRISM software (GraphPad Software Inc, San Diego, Calif.), a computer program used to analyze and graph scientific data. The normalized data was fitted by nonweighted nonlinear regression to either [formula]
Control data was entered as 100%, and no parameters were constrained. […]

Male Wistar albino rats = assay: Formalin footpad test (FT); format: in vivo, rat; conditions: PO, statistically significant decrease in late-phase pain behaviour versus vehicle
Experimental: a. The Formalin Footpad Test (FT):
The FT model was used to test invention compounds for pain alleviating properties. The model produces a biphasic response in a test animal that results from a change in pain intensity over time. The FT model utilizes an injection of dilute formalin into the hindpaw of a rodent, which produces high intensity acute pain behaviors which are measured for the first 10 minutes post formalin injection (early phase responding). High intensity acute pain behaviors include rapid licking or biting of the injected hindpaw. The second phase is a prolonged period of lower intensity pain behaviors (late phase responding) which are measured from 11 to 45 minutes post-formalin injection.
Male Wistar albino rats (Harlan Sprague-Dawley Labs), weighing approximately 100 g at the time of testing, were used. Animals were group-housed and acclimated to the housing facility for 1 week prior to testing. Animals were maintained on a 12-hour/12-hour light/dark cycle and fed block rodent chow. From 4 to 8 animals were randomly assigned to either a vehicle-only dose group or a vehicle-plus invention compound treatment group on the day of testing.
The testing apparatus was a 16″×8″ box divided into two 8″×8″ testing chambers. Each testing chamber comprised a floor and 3 walls made of clear plastic mirrors, and a fourth wall which was clear plastic that allowed observation of animal behavior. The top of each chamber was covered with a metal screen during testing to prevent animals from climbing out of the chamber. Two animals were tested simultaneously in the adjoining boxes, but animals were unable to observe one another.
Animals were weighed and placed into holding cages (2 animals per cage) in the testing room prior to dosing. Following approximately 30 minutes of acclimation to the testing room, each pair of animals was administered orally (PO) by gavage a mixture of invention compound plus vehicle or vehicle alone. The treated animals were then placed in individual test chambers and allowed to acclimate to the chambers for at least 20 minutes. Then 50 μL of a 2.5% solution of formalin in vehicle was injected subcutaneously (SC) in the plantar surface of the left hindpaw from 30 to 120 minutes after administration of the invention compound. A session timer was started following the formalin injection, and the amount of time the animal spent licking or biting the injected paw was clocked with a hand-held stopwatch. The cumulative time spent engaging in a pain response was manually recorded at 5-minute intervals for 45 minutes post formalin injection. Early phase responding included Minutes 0 to 10, and late phase responding included Minutes 11 to 45. At the end of the testing period, animals were sacrificed using carbon dioxide. […]

[2] = Table 4, 4 nM [3H]-ifenprodil, read-out: IFPNR IC50
[3] = Table 2, 4 nM [3H]-ifenprodil, read-out: IFPNR IC50 μm
[4] = Table 3, 4 nM [3H]-ifenprodil, read-out: IFPNR IC50

Question: Which IC50 [1, 2] does the source give for O=C(c1ccc(F)cc1)C1CCN(CC2CC(c3ccc4[nH]c(=O)oc4c3)=NO2)CC1 (stereo not shown) [Example 30, 6-{5-[4-(4-Fluorobenzoyl)piperidin-1-ylmethyl]-4,5-dihydroisoxazol-3-yl}-3H-benzoxazol-2-one] here?
Answer: 0.759 µM

Question: And the melting point?
Answer: 188 to 190 °C

Question: Which results are given for CC1(CN2CCC(Cc3ccc(F)cc3)CC2)CC(c2ccc3[nH]c(=O)oc3c2)=NO1 (stereo not shown) [Example 21, 6-{5-[4-(4-Fluorobenzyl)piperidin-1-ylmethyl]-5-methyl-4,5-dihydroisoxazol-3-yl}-3H-benzoxazol-2-one]?
Answer: IC50 [1, 3]: 0.011 µM; melting point: 82 to 86 °C

Question: Which IC50 [1, 4] does the source give for O=c1[nH]c2ccc(C3=NOC(CN4CCC(O)(c5ccccc5)CC4)C3)cc2o1 (stereo not shown) [Example 35] here?
Answer: > 1 µM

Question: What about the melting point of the same compound?
Answer: 115 to 118 °C

Question: With O=c1[nH]c2ccc(C3=NOC(CN4CCC(Sc5ccc(F)cc5)CC4)C3)cc2o1 (stereo not shown) [Example 28, 6-{5-[4-(4-Fluorophenylsulfanyl)piperidin-1-ylmethyl]-4,5-dihydroisoxazol-3-yl}-3H-benzoxazol-2-one] as the compound, how does the IC50 [1, 2] read?
Answer: 0.018 µM

Question: And the melting point?
Answer: 190 to 192 °C

Question: For O=c1[nH]c2ccc(C3=NOC(CCN4CCC(c5ccc(F)cc5)CC4)C3)cc2o1 (stereo not shown) [Example 36, 6-(5-{2-[4-(4-Fluorophenyl)piperidin-1-yl]ethyl}-4,5-dihydroisoxazol-3-yl)-3H-benzoxazol-2-one], which IC50 [1, 4] is on record?
Answer: > 1 µM

Question: And the melting point?
Answer: 188 to 194 °C

Question: For O=c1[nH]c2ccc(C3=NOC(CN4CCC(Cc5ccc(F)cc5)CC4)C3)cc2o1 (single isomer, unassigned; (+)) [Example 4a, (+)-6-{5-[4-(4-fluorobenzyl)piperidin-1-ylmethyl]-4,5-dihydroisoxazol-3-yl}-3H-benzoxazol-2-one], which IC50 ([1]; Table 1, 4 nM [3H]-ifenprodil, read-out: IFPNR (IC50 μM)) is on record?
Answer: 0.016 µM

Question: What about the “FT (mg/kg), active dose” value (Male Wistar albino rats; Table 1) of the same compound?
Answer: <10 mg/kg

Question: Which IC50 [1, 4] does the source give for O=c1[nH]c2ccc(C3=NOC(CN4CCC(c5ccc(F)cc5)CC4)C3)cc2o1 (stereo not shown) [Example 34, -{5-[4-(4-Fluorophenyl)piperidin-1-ylmethyl]-4,5-dihydroisoxazol-3-yl}-3H-benzoxazol-2-one] here?
Answer: 0.28 µM

Question: What about the melting point of the same compound?
Answer: 214 to 217 °C

Question: What does the source list for O=c1[nH]c2ccc(C3=NOC(CN4CCC(Oc5ccc(F)cc5)CC4)C3)cc2o1 (stereo not shown) [Example 27, 6-{5-[4-(4-Fluorophenoxy)piperidin-1-ylmethyl]-4,5-dihydroisoxazol-3-yl}-3-H-benzoxazol-2-one]?
Answer: IC50 [1, 2]: 0.059 µM; melting point: 192 to 194 °C

Question: For O=c1[nH]c2ccc(-c3cc(CN4CCC(Cc5ccc(F)cc5)CC4)on3)cc2o1 [Example 15, 6-{5-[4-(4-Fluorobenzyl)piperidin-1-ylmethyl]isoxazol-3-yl}-3H-benzoxazol-2-one], which IC50 [1, 3] is on record?
Answer: 0.499 µM

Question: And the melting point?
Answer: 237 to 244 °C

Question: With O=C(C1CC(c2ccc3[nH]c(=O)oc3c2)=NO1)N1CCC(Cc2ccc(F)cc2)CC1 (stereo not shown) [Example 18, 6-{5-[4-(4-Fluorobenzyl)piperidine-1-carbonyl]-4,5-dihydroisoxazol-3-yl}-3H-benzoxazol-2-one] as the compound, how does the IC50 [1, 4] read?
Answer: > 1 µM

Question: And the melting point?
Answer: 210 to 213 °C

Question: For Cc1c(C2=NOC(CN3CCC(Cc4ccc(F)cc4)CC3)C2)cc2oc(=O)[nH]c2c1Cl (stereo not shown) [Example 33, 4-Chloro-6-{5-[4-(4-fluorobenzyl)piperidin-1-ylmethyl]-4,5-dihydroisoxazol-3-yl}-5-methyl-3H-benzoxazol-2-one], which IC50 ([1]; Table 5, 4 nM [3H]-ifenprodil, read-out: IFPNR IC50) is on record?
Answer: 0.014 µM

Question: What about the melting point of the same compound?
Answer: 131 to 132 °C

Question: Which results are given for O=c1[nH]c2ccc(C3CC(CN4CCC(Cc5ccc(F)cc5)CC4)=NO3)cc2o1 (stereo not shown) [Example 5, 6-{3-[4-(4-Fluorobenzyl)piperidin-1-ylmethyl]-4,5-dihydroisoxazol-5-yl}-3H-benzoxazol-2-one]?
Answer: IC50 [1, 3]: 0.047 µM; FT (mg/kg), active dose (Male Wistar albino rats; Table 2): >30 mg/kg

Question: For O=C(O)C1(CN2CCC(Cc3ccc(F)cc3)CC2)CC(c2ccc3[nH]c(=O)oc3c2)=NO1 (stereo not shown) [Example 22, 5-[4-(4-Fluorobenzyl)piperidin-1-ylmethyl]-3-(2-oxo-2,3-dihydrobenzoxazol-6-yl)-4,5-dihydroisoxazole-5-carboxylic acid], which IC50 [1, 3] is on record?
Answer: 0.788 µM

Question: What about the melting point of the same compound?
Answer: 188 to 194 °C

Question: For CC(O)(c1ccc(F)cc1)C1CCN(CC2CC(c3ccc4[nH]c(=O)oc4c3)=NO2)CC1 (stereo not shown) [Example 32, 6-(5-{4-[1-(4-Fluorophenyl)-1-hydroxyethyl]piperidin-1-ylmethyl}-4,5-dihydroisoxazol-3-yl)-3H-benzoxazol-2-one], which IC50 [1, 2] is on record?
Answer: > 1 µM

Question: What about the melting point of the same compound?
Answer: 125 to 134 °C
